For 26 molecules, IC50 results are on record in patent US20050070554A1, “Substituted heterocyclic compounds and methods of use” (Amgen Inc., priority 2003, published 2005).

SMILES strings stand for the structures. Where only a bound is given, the exact number is not on record here.

The target in one test is T1, LCK (Homo sapiens, UniProt P06239).
T1 construct: LCK KD GST (225-509); GST
T1 sequence (P06239 225-509): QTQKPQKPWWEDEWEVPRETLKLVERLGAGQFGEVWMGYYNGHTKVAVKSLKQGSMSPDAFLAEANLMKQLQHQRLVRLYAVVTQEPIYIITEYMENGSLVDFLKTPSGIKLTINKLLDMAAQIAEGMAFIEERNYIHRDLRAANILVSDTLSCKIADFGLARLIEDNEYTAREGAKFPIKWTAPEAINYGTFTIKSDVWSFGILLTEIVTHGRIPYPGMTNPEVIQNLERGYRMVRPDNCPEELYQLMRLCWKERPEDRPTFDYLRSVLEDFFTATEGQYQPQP
Kind of test: LCK-Homogeneous Time Resolved Fluorescent (HTRF) Kinase Assay.
Conditions: not given
In kind it is biochemical. On the procedure:
LCK-Homogeneous Time Resolved Fluorescent (HTRF) Kinase Assay:
The LCK HTRF assay begins with LCK in the presence of ATP phosphorylating the biotinylated peptide Gastrin. The reaction incubates for 90 min. To quench the assay detection reagents are added which both stop the reaction by diluting out the enzyme and chelating the metals due to the presence of EDTA. Once the detection reagents are added the assay incubates for 30 min to allow for equilibration of the detection reagents.
Buffer conditions are as follows: 50 mM HEPES pH 7.5, 50 mM NaCl, 20 mM MgCl, 5 mM MnCl, 2 mM DTT, 0.05% BSA.
The assay is quenched and stopped with 160 μL of detection reagent. Detection reagents are as follows: Buffer made of 50 mM Tris, pH 7.5, 100 mM NaCl, 3 mM EDTA, 0.05% BSA, 0.1% Tween20.
The assay plate is read in either a Discovery or a RubyStar.
A general note: TR-FRET usually uses a lanthanide donor and a delayed reading to cut background.
Molecule `CN1CCN(c2ccc(Nc3ncc4c(=O)n(-c5c(Cl)cccc5Cl)c5nc6ccccc6n5c4n3)cc2)CC1` [No. 67, 6-(2,6-dichlorophenyl)-2-((4-(4-methyl-1-piperazinyl)phenyl)amino)pyrimido[5′,4′:5,6]-pyrimido[1,2-a]benzimidazol-5(6H)-one] registered an IC50 of less than 1 µM.
The same measure, in the same setting: as for `COc1ccc(Cl)cc1-n1c(=O)c2cnc(Nc3ccc(N4CCN(C)CC4)cc3)nc2n2c3ccccc3nc12` [No. 76, 6-(5-chloro-2-(methyloxy)phenyl)-2-((4-(4-methyl-1-piperazinyl)phenyl)amino)pyrimido[5′,4′:5,6]-pyrimido[1,2-a]benzimidazol-5(6H)-one], the figure is less than 1 µM.
The molecule `CN1CCN(c2ccc(Nc3ncc4c(=O)n(-c5c(Cl)cc(Cl)cc5Cl)c5nc6ccccc6n5c4n3)cc2)CC1` [No. 77, 2-((4-(4-methyl-1-piperazinyl)phenyl)amino)-6-(2,4,6-trichlorophenyl)pyrimido[5′,4′:5,6]-pyrimido[1,2-a]benzimidazol-5(6H)-one] registered an IC50 of less than 1 µM.
Same read-out and setting: under `Cc1ccc(-n2c(=O)c3cnc(Nc4ccc(N5CCN(C)CC5)cc4)nc3n3c4ccccc4nc23)cc1` [No. 78, 6-(4-methylphenyl)-2-((4-(4-methyl-1-piperazinyl)-phenyl)amino)pyrimido[5′,4′:5,6]pyrimido[1,2-a]-benzimidazol-5(6H)-one] stands less than 1 µM.

The same test, now with this note: read-out: activity in the LCK-HTRF Kinase Assay.
For the molecule `COCCN1CCN(c2ccc(Nc3ncc4c(=O)n(-c5c(C)cccc5C)c5nc6ccccc6n5c4n3)cc2)CC1` [No. 54, 6-(2,6-dimethylphenyl)-2-((4-(4-(2-(methyloxy)ethyl)-1-piperazinyl)phenyl)amino)pyrimido[5′,4′:5,6]-pyrimido[1,2-a]benzimidazol-5(6H)-one], the IC50 is less than 1 µM.
As for `COc1cc(Nc2ncc3c(=O)n(-c4c(C)cccc4C)c4nc5ccccc5n4c3n2)ccc1OC[C@H]1CCCN1` [No. 55, 6-(2,6-dimethylphenyl)-2-((3-(methyloxy)4-(((2R)-2-pyrrolidinylmethyl)oxy)phenyl)amino)-pyrimido[5′,4′:5,6]pyrimido[1,2-a]benzimidazol-5(6H)-one], the IC50 was less than 1 µM.
On the same count and under the same terms, as for `Cc1cccc(C)c1-n1c(=O)c2cnc(Nc3ccc(OCCNC(C)C)cc3)nc2n2c3ccccc3nc12` [No. 56, 6-(2,6-dimethylphenyl)-2-((4-((2-((1-methylethyl)-amino)ethyl)oxy)phenyl)amino)pyrimido[5′,4′:5,6]-pyrimido[1,2-a]benzimidazol-5(6H)-one], the figure is less than 1 µM.
As for `COc1ccc(-n2c(=O)c3cnc(Nc4ccc(N5CCN(C)CC5)cc4)nc3n3c4ccccc4nc23)cc1` [No. 57, 6-(4-(methyloxy)phenyl)-2-((4-(4-methyl-1-piperazinyl)phenyl)amino)pyrimido[5′,4′:5,6]-pyrimido[1,2-a]benzimidazol-5(6H)-one], the IC50 is less than 1 µM.
Same read-out and setting: as for `Cc1cccc(C)c1N1C(=O)c2cnc(Nc3ccc(N4CCN(C)CC4)cc3)nc2N2CCN=C21` [No. 58, 6-(2,6-dimethylphenyl)-2-((4-(4-methyl-1-piperazinyl)phenyl)amino)-8,9-dihydroimidazo[1,2-a]pyrimido[5,4-e]pyrimidin-5(6H)-one], the figure is less than 1 µM; as for `Cc1cccc(C)c1-n1c(=O)c2cnc(Nc3ccc(OCCN4CCCCC4)c(Cl)c3)nc2n2c3ccccc3nc12` [No. 59, 2-((3-chloro-4-((2-(1-piperidinyl)ethyl)oxy)phenyl)-amino)-6-(2,6-dimethylphenyl)pyrimido[5′,4′:5,6]-pyrimido[1,2-a]benzimidazol-5(6H)-one], less than 1 µM.
On the same count and under the same terms, under `C[C@@H](c1ccccc1)n1c(=O)c2cnc(Nc3ccc(N4CCN(C)CC4)cc3)nc2n2c3ccccc3nc12` [No. 60, 2-((4-(4-methyl-1-piperazinyl)phenyl)amino)-6-((1S)-1-phenylethyl)pyrimido[5′,4′:5,6]pyrimido[1,2-a]-benzimidazol-5(6H)-one] stands less than 1 µM; under `Cc1cccc(C)c1-n1c(=O)c2cnc(Nc3ccc(OCCN4CCN(C(C)C)CC4)c(F)c3)nc2n2c3ccccc3nc12` [No. 61, 6-(2,6-dimethylphenyl)-2-((3-fluoro-4-((2-(4-(1-methylethyl)-1-piperazinyl)ethyl)oxy)phenyl)amino)-pyrimido[5′,4′:5,6]pyrimido[1,2-a]benzimidazol-5(6H)-one], less than 1 µM; under `COc1cc(Nc2ncc3c(=O)n(-c4c(C)cccc4C)c4nc5ccccc5n4c3n2)ccc1OCCN1CCN(C(C)C)CC1` [No. 62, 6-(2,6-dimethylphenyl)-2-((4-((2-(4-(1-methylethyl)-1-piperazinyl)ethyl)oxy)-3-(methyloxy)phenyl)-amino)pyrimido[5′,4′:5,6]pyrimido[1,2-a]-benzimidazol-5(6H)-one], less than 1 µM.
Take `COc1cc(Nc2ncc3c(=O)n(-c4c(C)cccc4C)c4nc5ccccc5n4c3n2)ccc1OCCCN1CCN(C(C)C)CC1` [No. 63, 6-(2,6-dimethylphenyl)-2-((4-((3-(4-(1-methylethyl)-1-piperazinyl)propyl)oxy)-3-(methyloxy)phenyl)-amino)pyrimido[5′,4′:5,6]pyrimido[1,2-a]-benzimidazol-5(6H)-one]: the IC50 is less than 1 µM.
As to `CCN(CC)CCN(C)C(=O)c1ccc(Nc2ncc3c(=O)n(-c4c(C)cccc4C)c4nc5ccccc5n4c3n2)cc1` [No. 64, N-(2-(diethylamino)ethyl)-4-((6-(2,6-dimethylphenyl)-5-oxo-5,6-dihydropyrimido[5′,4′:5,6]pyrimido[1,2-a]-benzimidazol-2-yl)amino)-N-methylbenzamide], the IC50 was less than 1 µM.
On to `Cc1cccc(C)c1-n1c(=O)c2cnc(Nc3cccc(C(=O)NCCN(C)C)c3)nc2n2c3ccccc3nc12` [No. 65, N-(2-(dimethylamino)ethyl)-3-((6-(2,6-dimethylphenyl)-5-oxo-5,6-dihydropyrimido[5′,4′:5,6]pyrimido[1,2-a]-benzimidazol-2-yl)amino)benzamide], for which the IC50 is less than 1 µM.
For `CCN(CC)CCN(C)C(=O)c1cccc(Nc2ncc3c(=O)n(-c4c(C)cccc4C)c4nc5ccccc5n4c3n2)c1` [No. 66, N-(2-(diethylamino)ethyl)-3-((6-(2,6-dimethylphenyl)-5-oxo-5,6-dihydropyrimido[5′,4′:5,6]pyrimido[1,2-a]-benzimidazol-2-yl)amino)-N-methylbenzamide], the IC50 was less than 1 µM.
Still for that read-out and setting: under `C[C@H](c1ccccc1)n1c(=O)c2cnc(Nc3ccc(N4CCN(C)CC4)cc3)nc2n2c3ccccc3nc12` [No. 68, 2-((4-(4-methyl-1-piperazinyl)phenyl)amino)-6-((1R)-1-phenylethyl)pyrimido[5′,4′:5,6]pyrimido[1,2-a]-benzimidazol-5(6H)-one] stands less than 1 µM; under `Cc1cccc(C)c1-n1c(=O)c2cnc(Nc3ccc(N4CCN(CCO)CC4)cc3)nc2n2c3ccccc3nc12` [No. 69, 6-(2,6-dimethylphenyl)-2-((4-(4-(2-hydroxyethyl)-1-piperazinyl)phenyl)amino)pyrimido[5′,4′:5,6]-pyrimido[1,2-a]benzimidazol-5(6H)-one], less than 1 µM; under `Cc1cccc(C)c1-n1c(=O)c2cnc(Nc3ccc(OCCN4CCN(C(C)C)CC4)c(Cl)c3)nc2n2c3ccccc3nc12` [No. 70, 2-((3-chloro-4-((2-(4-(1-methylethyl)-1-piperazinyl)-ethyl)oxy)phenyl)amino)-6-(2,6-dimethylphenyl)-pyrimido[5′,4′:5,6]pyrimido[1,2-a]benzimidazol-5(6H)-one], less than 1 µM.
On the same count and under the same terms, under `Cc1cccc(C)c1-n1c(=O)c2cnc(Nc3ccc(C(=O)NCCN(C)C)cc3)nc2n2c3ccccc3nc12` [No. 71, N-(2-(dimethylamino)ethyl)-4-((6-(2,6-dimethylphenyl)-5-oxo-5,6-dihydropyrimido[5′,4′:5,6]pyrimido[1,2-a]-benzimidazol-2-yl)amino)benzamide] stands less than 1 µM; under `Cc1cccc(C)c1-n1c(=O)c2cnc(Nc3ccc(OCCCN4CCN(C(C)C)CC4)c(F)c3)nc2n2c3ccccc3nc12` [No. 72, 6-(2,6-dimethylphenyl)-2-((3-fluoro-4-((3-(4-(1-methylethyl)-1-piperazinyl)propyl)oxy)phenyl)-amino)pyrimido[5′,4′:5,6]pyrimido[1,2-a]-benzimidazol-5(6H)-one], less than 1 µM.
The same measure, in the same setting: as for `Cc1cccc(C)c1-n1c(=O)c2cnc(Nc3ccc(OCCCN4CCN(C)CC4)c(Cl)c3)nc2n2c3ccccc3nc12` [No. 73, 2-((3-chloro-4-((3-(4-methyl-1-piperazinyl)propyl)-oxy)phenyl)amino)-6-(2,6-dimethylphenyl)-pyrimido[5′,4′:5,6]pyrimido[1,2-a]benzimidazol-5(6H)-one], the figure is less than 1 µM.
Regarding `Cc1cccc(C)c1-n1c(=O)c2cnc(Nc3ccc(N4CCCN(C)CC4)cc3)nc2n2c3ccccc3nc12` [No. 74, 6-(2,6-dimethylphenyl)-2-((4-(4-methyl-1,4-diazepan-1-yl)phenyl)amino)pyrimido[5′,4′:5,6]pyrimido[1,2-a]benzimidazol-5(6H)-one], the IC50 was less than 1 µM.
Same read-out and setting: under `Cc1cccc(C)c1-n1c(=O)c2cnc(Nc3ccc(N4CCCNCC4)cc3)nc2n2c3ccccc3nc12` [No. 75, 2-((4-(1,4-diazepan-1-yl)phenyl)amino)-6-(2,6-dimethylphenyl)pyrimido[5′,4′:5,6]pyrimido[1,2-a]-benzimidazol-5(6H)-one] stands less than 1 µM.
Same read-out and setting: as for `CN1CCN(c2ccc(Nc3ncc4c(=O)n(-c5ccccc5F)c5nc6ccccc6n5c4n3)cc2)CC1` [No. 79, 6-(2-fluorophenyl)-2-((4-(4-methyl-1-piperazinyl)-phenyl)amino)pyrimido[5′,4′:5,6]pyrimido[1,2-a]-benzimidazol-5(6H)-one], the figure is less than 1 µM.
